From PubChem BioAssay (NCI)
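A five-concentration, 48-hour dose response in 96-well plates underlies each endpoint, interpolated linearly between surrounding concentrations. The concentration for full growth arrest is given as TGI.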

Legend:
Assay in all cases: DTP human tumour cell line panel, 48 h
U251 CNS = system: U251 CNS
SF-539 CNS = system: SF-539 CNS
CCRF-CEM leukemia = system: CCRF-CEM leukemia
K-562 leukemia = system: K-562 leukemia
T-47D breast = system: T-47D breast
OVCAR-5 ovarian = system: OVCAR-5 ovarian
BT-549 breast = system: BT-549 breast
OVCAR-3 ovarian = system: OVCAR-3 ovarian
RPMI-8226 leukemia = system: RPMI-8226 leukemia
UO-31 renal = system: UO-31 renal
OVCAR-8 ovarian = system: OVCAR-8 ovarian
TK-10 renal = system: TK-10 renal
HCT-116 colon = system: HCT-116 colon
UACC-257 melanoma = system: UACC-257 melanoma
SNB-75 CNS = system: SNB-75 CNS
MALME-3M melanoma = system: MALME-3M melanoma
SK-MEL-28 melanoma = system: SK-MEL-28 melanoma
NCI-H522 lung = system: NCI-H522 lung
UACC-62 melanoma = system: UACC-62 melanoma
PC-3 prostate = system: PC-3 prostate
NCI-H460 lung = system: NCI-H460 lung
DU-145 prostate = system: DU-145 prostate
LOX IMVI melanoma = system: LOX IMVI melanoma
SK-MEL-5 melanoma = system: SK-MEL-5 melanoma
SF-268 CNS = system: SF-268 CNS
SF-295 CNS = system: SF-295 CNS
A498 renal = system: A498 renal
SW-620 colon = system: SW-620 colon
HL-60(TB) leukemia = system: HL-60(TB) leukemia
MOLT-4 leukemia = system: MOLT-4 leukemia
EKVX NSCLC = system: EKVX NSCLC
SR leukemia = system: SR leukemia
RXF 393 renal = system: RXF 393 renal
NCI/ADR-RES ovarian = system: NCI/ADR-RES ovarian
MDA-MB-435 = system: MDA-MB-435
HOP-92 NSCLC = system: HOP-92 NSCLC
NCI-H23 lung = system: NCI-H23 lung
SN12C renal = system: SN12C renal
786-0 renal = system: 786-0 renal
HCT-15 colon = system: HCT-15 colon
IGROV1 ovarian = system: IGROV1 ovarian
HCC-2998 colon = system: HCC-2998 colon
SK-MEL-2 melanoma = system: SK-MEL-2 melanoma
HOP-62 NSCLC = system: HOP-62 NSCLC
A549 NSCLC = system: A549 NSCLC
HS 578T breast = system: HS 578T breast
MCF7 breast = system: MCF7 breast
KM12 colon = system: KM12 colon
CAKI-1 renal = system: CAKI-1 renal
ACHN renal = system: ACHN renal
M14 melanoma = system: M14 melanoma
MDA-N = system: MDA-N
COLO 205 colon = system: COLO 205 colon
SNB-19 CNS = system: SNB-19 CNS
MDA-MB-231 breast = system: MDA-MB-231 breast
SK-OV-3 ovarian = system: SK-OV-3 ovarian
HT29 colon = system: HT29 colon
OVCAR-4 ovarian = system: OVCAR-4 ovarian
NCI-H226 lung = system: NCI-H226 lung

## CCN(CC)CCCNc1nnc(C)c2[nH]c3ccccc3c12
U251 CNS
  TGI: > 100 µM
SF-539 CNS
  TGI: 5.86 µM
CCRF-CEM leukemia
  TGI: 63.9 µM
K-562 leukemia
  TGI: > 100 µM
T-47D breast
  TGI: 68.9 µM
OVCAR-5 ovarian
  TGI: 61.3 µM
BT-549 breast
  TGI: 68 µM
OVCAR-3 ovarian
  TGI: 37.7 µM
RPMI-8226 leukemia
  TGI: > 100 µM
UO-31 renal
  TGI: > 100 µM
OVCAR-8 ovarian
  TGI: 42.3 µM
TK-10 renal
  TGI: 67.2 µM
HCT-116 colon
  TGI: 69.4 µM
UACC-257 melanoma
  TGI: 31.8 µM
SNB-75 CNS
  TGI: 38.8 µM
MALME-3M melanoma
  TGI: 29.3 µM
SK-MEL-28 melanoma
  TGI: 40.6 µM
NCI-H522 lung
  TGI: 21.3 µM
UACC-62 melanoma
  TGI: 27.9 µM
PC-3 prostate
  TGI: 45.2 µM
NCI-H460 lung
  TGI: 30.9 µM
DU-145 prostate
  TGI: 59.9 µM
LOX IMVI melanoma
  TGI: 30.9 µM
SK-MEL-5 melanoma
  TGI: 27.8 µM
SF-268 CNS
  TGI: 34.7 µM
SF-295 CNS
  TGI: 62.5 µM
A498 renal
  TGI: 43.1 µM
SW-620 colon
  TGI: > 100 µM
HL-60(TB) leukemia
  TGI: 27.4 µM
MOLT-4 leukemia
  TGI: > 100 µM
EKVX NSCLC
  TGI: 63.4 µM
SR leukemia
  TGI: 32.6 µM
RXF 393 renal
  TGI: 38.8 µM
NCI/ADR-RES ovarian
  TGI: > 100 µM
MDA-MB-435
  TGI: 25.9 µM
HOP-92 NSCLC
  TGI: 55 µM
NCI-H23 lung
  TGI: 38.8 µM
SN12C renal
  TGI: 43 µM
786-0 renal
  TGI: 94 µM
HCT-15 colon
  TGI: > 100 µM
IGROV1 ovarian
  TGI: 44.3 µM
HCC-2998 colon
  TGI: 22.2 µM
SK-MEL-2 melanoma
  TGI: 33.3 µM
HOP-62 NSCLC
  TGI: 35.5 µM
A549 NSCLC
  TGI: 53 µM
HS 578T breast
  TGI: 38 µM
MCF7 breast
  TGI: > 100 µM
KM12 colon
  TGI: > 100 µM
CAKI-1 renal
  TGI: > 100 µM
ACHN renal
  TGI: 59.9 µM
M14 melanoma
  TGI: 32.4 µM
MDA-N
  TGI: 29.2 µM
COLO 205 colon
  TGI: 13.1 µM
SNB-19 CNS
  TGI: > 100 µM
MDA-MB-231 breast
  TGI: 39.5 µM
SK-OV-3 ovarian
  TGI: 46.8 µM
HT29 colon
  TGI: 56.1 µM

## Nc1nc2c(c(-c3ccc(F)cc3)n1)COC/C2=C\c1ccc(F)cc1
U251 CNS
  TGI: 31 µM
SF-539 CNS
  TGI: > 100 µM
CCRF-CEM leukemia
  TGI: > 100 µM
K-562 leukemia
  TGI: > 100 µM
OVCAR-5 ovarian
  TGI: > 100 µM
BT-549 breast
  TGI: > 100 µM
OVCAR-3 ovarian
  TGI: > 100 µM
RPMI-8226 leukemia
  TGI: > 100 µM
UO-31 renal
  TGI: 50 µM
OVCAR-8 ovarian
  TGI: > 100 µM
TK-10 renal
  TGI: > 100 µM
UACC-257 melanoma
  TGI: > 100 µM
SNB-75 CNS
  TGI: 83.1 µM
MALME-3M melanoma
  TGI: 35.1 µM
SK-MEL-28 melanoma
  TGI: > 100 µM
NCI-H522 lung
  TGI: 22.7 µM
UACC-62 melanoma
  TGI: > 100 µM
PC-3 prostate
  TGI: > 100 µM
NCI-H460 lung
  TGI: 34 µM
DU-145 prostate
  TGI: > 100 µM
OVCAR-4 ovarian
  TGI: > 100 µM
SK-MEL-5 melanoma
  TGI: > 100 µM
SF-268 CNS
  TGI: > 100 µM
SF-295 CNS
  TGI: > 100 µM
A498 renal
  TGI: > 100 µM
SW-620 colon
  TGI: > 100 µM
HL-60(TB) leukemia
  TGI: > 100 µM
MOLT-4 leukemia
  TGI: > 100 µM
EKVX NSCLC
  TGI: > 100 µM
SR leukemia
  TGI: 43.2 µM
RXF 393 renal
  TGI: > 100 µM
NCI/ADR-RES ovarian
  TGI: > 100 µM
MDA-MB-435
  TGI: > 100 µM
HOP-92 NSCLC
  TGI: > 100 µM
NCI-H23 lung
  TGI: > 100 µM
SN12C renal
  TGI: > 100 µM
HCT-15 colon
  TGI: > 100 µM
IGROV1 ovarian
  TGI: > 100 µM
NCI-H226 lung
  TGI: > 100 µM
HCC-2998 colon
  TGI: > 100 µM
SK-MEL-2 melanoma
  TGI: > 100 µM
HOP-62 NSCLC
  TGI: > 100 µM
HS 578T breast
  TGI: > 100 µM
MCF7 breast
  TGI: > 100 µM
KM12 colon
  TGI: 29 µM
CAKI-1 renal
  TGI: > 100 µM
ACHN renal
  TGI: > 100 µM
M14 melanoma
  TGI: > 100 µM
MDA-N
  TGI: > 100 µM
COLO 205 colon
  TGI: > 100 µM
SNB-19 CNS
  TGI: > 100 µM
MDA-MB-231 breast
  TGI: > 100 µM
SK-OV-3 ovarian
  TGI: > 100 µM
HT29 colon
  TGI: 29.3 µM
